Experiment [1] concerns the target T1, PTGR2 (Homo sapiens, UniProt Q8N8N7).
T1 construct: purchased Antikoerper-online ABIN1098255
The experiment can be described thus: PTGR2 activity assay (LC-MS/MS). The class given is biochemical. To be noted: tested up to 250 μM, data not shown. On the procedure: AIFM1 expression & purification
Recombinant AIFM1 was expressed in a Rosetta2 E. coli strain. Bacterial growth was conducted in LB media supplemented with riboflavin and FAD shaking at 37°C and 180 rpm. Expression was induced with 1.0 mM IPTG and incubated for further 16 h before harvesting. Cells were harvested on ice in PBS and cell pellets stored at -20°C. Cells were lysed by French press and the 6xHis-tagged constructs were purified by Immobilized Metal Affinity Chromatography using Ni Sepharose (6 Fast Flow, GE). The centrifugation-cleared bacterial lysate was bound to beads in binding buffer (200 mM NaCl, 20 mM Tris/Cl pH = 7.4). […]
For gel-based fluorescence labelling of recombinant AIFM1, 1.7 µM recombinant protein was spiked - in to PBS or PBS -diluted HEK293 cell lysate ( 100 µg per reaction sample). […]
Click Master-mix (8 µL, 100 µM TAMRA-azide, Baseclick, Neuried, Germany, Cat# BCFA-008-10, 500 µM BTTAA ligand, Jena Bioscience, Jena, Germany, CLK -067, 1 mM CuSO4) was added and the CuAAC reaction started by addition of 2 µL of aq. sodium ascorbate (c end= 2 mM). […] Fluorescence scanning was performed using a Las-3000 fluorescence darkbox (Fujifilm, Minato, Japan) with a Fujinon VRF 43LMD Lens, 605DF40 filter and 520 nm EPI excitation wavelength and loading controls were developed with Coomassie stain afterwards. […]

Experiment [2] relates to HEK‐293 and PDL‐hTERT cells. The experiment can be described thus: MTT assay, relative metabolic activity after 3 days. In kind it is cell-based, human. To be noted: 3 days of treatment. How it is done:
Methods and Experimental Procedures
(Alfa Aesar, Haverhill, USA, Cat# J66943 ) stocks were prepared in sterile -filtered 0.1 N HCl to a
maximum concentration of 50 mM. HCl was used as vehicle control, diluted in culture medium, and
Cell culture experiments were performed in HEK 293, A549 or PDL-hTERT cells1 cultured in DMEM high
glucose medium supplemented with 10% FCS and 2 mM glutamine ( all, Sigma-Aldrich, St. Louis, USA,
Cat# G7513) in 5% CO2 atmosphere at 37 °C in Heracell 150i incubators (Thermo Fisher Scientific,
Waltham, USA). The human periodontal ligament (PDL -hTERT) cell line was provided by Prof. Denitsa
Docheva. During standard cell passaging accutase (Sigma-Aldrich) or 2,5x trypsin/0.5% EDTA in PBS
(Capricorn Scientific, Ebsdorfergrund, Germany) was used for cell detachment. Cell dishes in various
sizes (10 cm, 15 cm) and flasks (T75, T175) were used for cultivation (Sarstedt, Nümbrecht, Germany,
purchased from Thermo Fisher Scientific, Waltham, USA, Cat# 130184, 130188.
HEK or PDL-hTERT cells (1,5 x 10^3 cells/well) were seeded into 96 -well plates and grown for 24 h. […]
removed by suction and the formed formazan crystals dissolved in 200 μL DMSO. The read-out was
performed with an Infinite M200 Pro microplate reader (Tecan, Männedorf, Switzerland) at 570 nm
and background was subtracted at 630 nm. The absorbance values were normalized to DMSO/0.1 N […]
For orientation: Formazan colour is commonly taken as a measure of viable cells.

Data on one compound can be found in article PMC12036814 (Angewandte Chemie (International Ed. in English), 2025).

T1 sequence (Q8N8N7 whole entry): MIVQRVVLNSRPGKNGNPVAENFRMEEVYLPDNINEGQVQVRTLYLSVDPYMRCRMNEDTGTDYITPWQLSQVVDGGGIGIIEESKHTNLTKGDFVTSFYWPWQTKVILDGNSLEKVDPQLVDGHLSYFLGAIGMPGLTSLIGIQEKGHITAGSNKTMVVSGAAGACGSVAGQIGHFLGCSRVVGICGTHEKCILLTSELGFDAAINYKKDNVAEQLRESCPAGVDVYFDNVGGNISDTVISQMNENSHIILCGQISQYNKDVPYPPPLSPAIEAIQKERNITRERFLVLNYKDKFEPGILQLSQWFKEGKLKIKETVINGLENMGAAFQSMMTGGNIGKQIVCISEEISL

For `O=C(O)c1cn(C2CC2)c2cc(N3CCNCC3)c(F)cc2c1=O` [Ciprofloxacin], the PTGR2 activity result in experiment [1] was “not significantly affected”. For the same compound, the “approximate apparent IC50 (metabolic activity, MTT)” value in experiment [2] was “well above the reported plasma concentrations”.
